Consider 2 compounds from article PMC5488252, “Specificity Effects of Amino Acid Substitutions in Promiscuous Hydrolases: Context‐Dependence of Catalytic Residue Contributions to Local Fitness Landscapes in Nearby Sequence Space” (Chembiochem, 2017).

As usually defined, the Km is the substrate concentration at which the rate is half of its maximum.

Test [1] deals with T1, SaAS.
T1 construct: pASK-IBA5plus (Strep-tag), E. coli TOP10; source organism not spelt out in this text
Kind of test: 4-nitrophenolate release at […] nm. The test is classed as biochemical. As to conditions: 30 °C; Bis-Tris propane or SID buffer.

In test [2] the test system is AkAS. The test is classed as biochemical. Particulars: 30 °C.

Structures can show the parent of a compound that is named as a salt.

As to `O=[N+]([O-])c1ccc(OS(=O)(=O)O)cc1` [compound 4, sulfate monoester 4], the Km in test [1] was found to be 0.24 mM.

Turning to `O=[N+]([O-])c1ccc(OP(=O)(O)O)cc1` [compound 1, phosphate monoester 1], the Michaelis-Menten constant (Km) in test [2] worked out at 17 mM.
